The results in this text go back to patent US8987195B2 (priority 2012, dated 2015).

The EC50 is the concentration needed to bring the measured effect to its halfway point. The IC50 is the concentration that gives 50% inhibition.

SMILES strings stand for the structures. Read-outs that look alike come from different tables or passages of the source.

In experiment [1] the test system is HCV genotype 1b replicon. Briefly: HCV replicon assay, genotype 1b replicon EC50. The experiment is classed as cell-based, Hepatitis C virus. The note with it: Hepatitis C virus, read-out: EC50 [gt-1b]. The procedure, abridged: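 Stable neomycin-selected genotype 1b replicon cells, some carrying luciferase:Neo^r fusion, plated without G418 with a compound dilution series and incubated 24-48 h. Read-out was RNA (^32P-probe protection or TaqMan, normalized to cyclophilin A) or luciferase activity. EC50 from four-parameter fit as percent of DMSO control.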
On the technique in general: In antiviral work, replicon cells carry a viral genome segment that copies itself.

The target of experiment [2] is HCV NS3/4A protease genotype 1b (Hepatitis C virus genotype 1b, UniProt P26663). Kind of experiment: HCV NS3/4A protease time-resolved fluorescence (TRF) assay, Ki against genotype 1b. The experiment is classed as biochemical. In a few lines:
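NS3/4A enzyme was preincubated 30 min with inhibitor in 50 mM HEPES pH 7.5, 150 mM NaCl, 15% glycerol, 0.15% Triton X-100, 10 mM DTT, 0.1% PEG 8000; 25 nM europium TRF peptide substrate added, 2.5 h at room temperature. Enzyme: 0.2 nM (1b), 0.4 nM (A156T), 0.025 nM (3a). Ki from IC50 via Cheng-Prusoff.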

Where [3] appears, read: IC50 [gt-1b] (nM), NS3/4A genotype 1b, enzyme 0.2 nM.
Setting [4] is: HCV replicon, genotype 1b, K+ salt.
Where [5] appears, read: IC50 [gt-1b], NS3/4A protease TRF assay, genotype 1b enzyme 0.2 nM, K+ salt.
[6] abbreviates: IC50 [gt-1b], NS3/4A protease TRF assay, genotype 1b enzyme 0.2 nM.

For the compound `CCCOC(=O)N[C@H]1CCCCC/C=C\[C@@H]2C[C@@]2(C(=O)NS(=O)(=O)C2(C)CC2)NC(=O)[C@@H]2C[C@]3(CCc4c(c(C(F)F)nc5ccccc45)O3)CN2C1=O` [Example 325, propyl [(2R,6S,12Z,13aS,14aR,16aS)-5′-(difluoromethyl)-14a-{[(1-methylcyclopropyl)sulfonyl]carbamoyl}-5,16-dioxo-1,1′,2′,5,6,7,8,9,10,11,13a,14,14a,15,16,16a-hexadecahydrospiro[cyclopropa[e]pyrrolo[1,2-a][1,4]diazacyclopentadecine-2,3′-pyrano[2,3-c]quinolin]-6-yl]carbamate], in experiment [1] (genotype 1b replicon), the EC50 turned out to be 3.23 nM. This compound also returned an IC50 in experiment [2] (setting [3]) of 0.013 nM.

As for `COc1ccc2nc(C3CC3)c3c(c2c1)[C@H](F)C[C@]1(C[C@H]2C(=O)N[C@]4(C(=O)NS(=O)(=O)C5(C)CC5)C[C@H]4/C=C\CCCCC[C@H](NC(=O)OCC(C)C)C(=O)N2C1)O3` [Example 454, 2-methylpropyl [(1′R,2S,6S,12Z,13aS,14aR,16aS)-5′-cyclopropyl-1′-fluoro-9′-methoxy-14a-{[(1-methylcyclopropyl)sulfonyl]carbamoyl}-5,16-dioxo-1,1′,2′,5,6,7,8,9,10,11,13a,14,14a,15,16,16a-hexadecahydrospiro[cyclopropa[e]pyrrolo[1,2-a][1,4]diazacyclopentadecine-2,3′-pyrano[2,3-c]quinolin]-6-yl]carbamate], the 50% effective concentration (EC50) in experiment [1] (setting [4]) is 1.38 nM. For the same compound, the IC50 in experiment [2] (setting [5]) is 0.024 nM.

Consider `COc1ccc2nc(C(F)F)c3c(c2c1)CC[C@]1(C[C@H]2C(=O)N[C@]4(C(=O)NS(=O)(=O)C5(C)CC5)C[C@H]4/C=C\CCCCC[C@H](NC(=O)OC4(C)CCC4)C(=O)N2C1)O3` [Example 493, 1-methylcyclobutyl [(2R,6S,12Z,13aS,14aR,16aS)-5′-(difluoromethyl)-9′-methoxy-14a-{[(1-methylcyclopropyl)sulfonyl]carbamoyl}-5,16-dioxo-1,1′,2′,5,6,7,8,9,10,11,13a,14,14a,15,16,16a-hexadecahydrospiro[cyclopropa[e]pyrrolo[1,2-a][1,4]diazacyclopentadecine-2,3′-pyrano[2,3-c]quinolin]-6-yl]carbamate], for which the EC50 in experiment [1] (setting [4]) was 0.283 nM. The IC50 in experiment [2] (setting [5]) was 0.003 nM.

Turning to `Cc1nc2ccccc2c2c1O[C@]1(CC2)C[C@H]2C(=O)N[C@]3(C(=O)NS(=O)(=O)C4(C)CC4)C[C@H]3/C=C\CCCCC[C@H](NC(=O)OCC(C)C)C(=O)N2C1` [Example 97, 2-methylpropyl [(2R,6S,12Z,13aS,14aR,16aS)-5′-methyl-14a-{[(1-methylcyclopropyl)sulfonyl]carbamoyl}-5,16-dioxo-1,1′,2′,5,6,7,8,9,10,11,13a,14,14a,15,16,16a-hexadecahydrospiro[cyclopropa[e]pyrrolo[1,2-a][1,4]diazacyclopentadecine-2,3′-pyrano[2,3-c]quinolin]-6-yl]carbamate], the EC50 in experiment [1] (genotype 1b replicon) turned out to be 1.94 nM. This compound also had an IC50 in experiment [2] (setting [3]) of 0.016 nM.

In the case of `COc1ccc2nc(C(C)C)c3c(c2c1)CC[C@]1(C[C@H]2C(=O)N[C@]4(C(=O)NS(=O)(=O)C5(C)CC5)C[C@H]4/C=C\CCCCC[C@H](NC(=O)OC(C)(C)CCS(C)(=O)=O)C(=O)N2C1)O3` [Example 243, 2-methyl-4-(methylsulfonyl)butan-2-yl [(2R,6S,12Z,13aS,14aR,16aS)-9′-methoxy-14a-{[(1-methylcyclopropyl)sulfonyl]carbamoyl}-5,16-dioxo-5′-(propan-2-yl)-1,1′,2′,5,6,7,8,9,10,11,13a,14,14a,15,16,16a-hexadecahydrospiro[cyclopropa[e]pyrrolo[1,2-a][1,4]diazacyclopentadecine-2,3′-pyrano[2,3-c]quinolin]-6-yl]carbamate], in experiment [1] (genotype 1b replicon, K+ salt), the EC50 is 43 nM. In addition, the IC50 in experiment [2] (IC50 [gt-1b] (nM), NS3/4A genotype 1b, enzyme 0.2 nM, K+ salt) came to 0.012 nM.

Consider `COc1ccc2nc(C(F)(F)F)c3c(c2c1)CC[C@]1(C[C@H]2C(=O)N[C@]4(C(=O)NS(=O)(=O)C5(C)CC5)C[C@H]4/C=C\CCCCC[C@H](NC(=O)O[C@@H]4C[C@@H]5C[C@@H]5C4)C(=O)N2C1)O3` [Example 513, (1R,3r,5S)-bicyclo[3.1.0]hex-3-yl [(2R,6S,12Z,13aS,14aR,16aS)-9′-methoxy-14a-{[(1-methylcyclopropyl)sulfonyl]carbamoyl}-5,16-dioxo-5′-(trifluoromethyl)-1,1′,2′,5,6,7,8,9,10,11,13a,14,14a,15,16,16a-hexadecahydrospiro[cyclopropa[e]pyrrolo[1,2-a][1,4]diazacyclopentadecine-2,3′-pyrano[2,3-c]quinolin]-6-yl]carbamate], for which, in experiment [1] (HCV replicon, genotype 1b), the EC50 worked out at 1.42 nM. This compound yielded an IC50 in experiment [2] (setting [6]) of 0.01 nM.

As for `COCC1(S(=O)(=O)NC(=O)[C@@]23C[C@H]2/C=C\CCCCC[C@H](NC(=O)OC2(C)CCC2)C(=O)N2C[C@@]4(CCc5c(c(C(F)(F)F)nc6ccc(OC)cc56)O4)C[C@H]2C(=O)N3)CC1` [Example 495, 1-methylcyclobutyl [(2R,6S,12Z,13aS,14aR,16aS)-9′-methoxy-14a-({[1-(methoxymethyl)cyclopropyl]sulfonyl}carbamoyl)-5,16-dioxo-5′-(trifluoromethyl)-1,1′,2′,5,6,7,8,9,10,11,13a,14,14a,15,16,16a-hexadecahydrospiro[cyclopropa[e]pyrrolo[1,2-a][1,4]diazacyclopentadecine-2,3′-pyrano[2,3-c]quinolin]-6-yl]carbamate], the EC50 in experiment [1] (HCV replicon, genotype 1b) worked out at 1.45 nM. The IC50 in experiment [2] (setting [6]) stood at 0.007 nM.

For `COc1ccc2nc(C3CC3)c3c(c2c1)[C@H](F)C[C@]1(C[C@H]2C(=O)N[C@]4(C(=O)NS(=O)(=O)C5(C)CC5)C[C@H]4/C=C\CCCCC[C@H](NC(=O)OCC(C)(C)C)C(=O)N2C1)O3` [Example 455, 2,2-dimethylpropyl [(1′R,2S,6S,12Z,13aS,14aR,16aS)-5′-cyclopropyl-1′-fluoro-9′-methoxy-14a-{[(1-methylcyclopropyl)sulfonyl]carbamoyl}-5,16-dioxo-1,1′,2′,5,6,7,8,9,10,11,13a,14,14a,15,16,16a-hexadecahydrospiro[cyclopropa[e]pyrrolo[1,2-a][1,4]diazacyclopentadecine-2,3′-pyrano[2,3-c]quinolin]-6-yl]carbamate], the EC50 in experiment [1] (setting [4]) was 1.55 nM. In addition, in experiment [2] (setting [5]), the IC50 was determined as 0.04 nM.

For `COc1ccc2nc(C(F)(F)F)c3c(c2c1)CC[C@]1(C[C@H]2C(=O)N[C@]4(C(=O)NS(=O)(=O)C5(C)CC5)C[C@H]4/C=C\CCCCC[C@H](NC(=O)OC4CCCC4)C(=O)N2C1)O3` [Example 217, cyclopentyl [(2R,6S,12Z,13aS,14aR,16aS)-9′-methoxy-14a-{[(1-methylcyclopropyl)sulfonyl]carbamoyl}-5,16-dioxo-5′-(trifluoromethyl)-1,1′,2′,5,6,7,8,9,10,11,13a,14,14a,15,16,16a-hexadecahydrospiro[cyclopropa[e]pyrrolo[1,2-a][1,4]diazacyclopentadecine-2,3′-pyrano[2,3-c]quinolin]-6-yl]carbamate], in experiment [1] (genotype 1b replicon), the EC50 came out at 10.3 nM. Moreover, in experiment [2] (setting [3]), the IC50 was found to be 0.024 nM.
